Results reported in US8106205B2, “N[S(4-aryl-triazol-3-yl)α-mercaptoacetyl]p-amino benzoic acids as HIV reverse transcriptase inhibitors” (priority 2004, dated 2012).
Read-outs that look alike come from different tables or passages of the source.

Tests used:
wild type HIV RT = wild type HIV RT (Human immunodeficiency virus type 1 group M subtype B, UniProt P04585); assay: IC50 against wild-type HIV reverse transcriptase; format: biochemical
Protocol: Compounds of the invention were tested against the wild-type and four mutant HIV reverse transcriptases. The results are listed in Table 1 and Table 2 as EC50 (nM) and IC50 (nM). In Tables 1 and 2, A represents <50 nM, B is between 50 and 100 nM, and C is >100 nM. ND is not determined. […]

wild-type (WT) HIV = assay: EC50 against wild-type HIV; format: cell-based
[1] = Human immunodeficiency virus 1, read-out: EC50 WT
[2] = Table 2, wild-type, read-out: EC50 WT
[3] = Human immunodeficiency virus 1, read-out: EC50 WT (nM)

| SMILES | IC50 (wild type HIV RT; Table 2, wild-type RT) | EC50 (wild-type (WT) HIV; [1]) | EC50 (wild-type (WT) HIV; [2]) | IC50 (wild type HIV RT; Table 1, wild-type RT) | EC50 (wild-type (WT) HIV; [3]) |
| --- | --- | --- | --- | --- | --- |
| COCCC(=O)NS(=O)(=O)c1ccc(NC(=O)CSc2nnc(Br)n2-c2ccc(C3CC3)c3ccccc23)c(Cl)c1 [Compound 67] | < 50 nM | < 50 nM |  |  |  |
| CCc1ccc(-n2c(Br)nnc2SCC(=O)Nc2ccc(S(N)(=O)=O)cc2Cl)c2ccccc12 [Compound 57] | < 50 nM |  | < 50 nM |  |  |
| Cc1cc(S(N)(=O)=O)ccc1NC(=O)CSc1nnc(Br)n1-c1ccc(C2CCC2)c2ccccc12 [Compound 72] | < 50 nM | < 50 nM |  |  |  |
| Cc1cc(C)c2ccccc2c1-n1c(CF)nnc1SCC(=O)Nc1ccc(S(N)(=O)=O)cc1Cl [Compound 53] | < 50 nM |  | < 50 nM |  |  |
| CC(=O)OC(C)OC(=O)NS(=O)(=O)c1ccc(NC(=O)CSc2nnc(Br)n2-c2ccc(C3CC3)c3ccccc23)c(Cl)c1 (centres unmarked) [Compound 47] | < 50 nM |  | < 50 nM |  |  |
| NS(=O)(=O)c1ccc(NC(=O)CSc2nnc(Br)n2-c2c(Cl)cc(C3CCC3)c3ccccc23)c(Cl)c1 (single isomer, unassigned) [Compound 69] | < 50 nM |  | < 50 nM |  |  |
| NS(=O)(=O)c1ccc(NC(=O)CSc2nnc(Br)n2-c2ccc(C3CC3)c3ccccc23)c(Cl)c1 [Compound 45] | < 50 nM |  | < 50 nM |  |  |
| Cc1cc(S(N)(=O)=O)ccc1NC(=O)CSc1nnc(C(F)F)n1-c1cccc2c(C#N)cccc12 [Compound 77] | > 100 nM |  |  |  |  |
| N[C@@H](CC(=O)NS(=O)(=O)c1ccc(NC(=O)CSc2nnc(Br)n2-c2ccc(C3CC3)c3ccccc23)c(Cl)c1)C(=O)O [Compound 63] | < 50 nM |  | < 50 nM |  |  |
| N#Cc1cccc2c(-n3c(SCC(=O)Nc4ccc(S(N)(=O)=O)cc4Cl)nnc3C(F)F)cccc12 [Compound 76] | 50 to 100 nM | < 50 nM |  |  |  |
| N[C@@H](CCC(=O)NS(=O)(=O)c1ccc(NC(=O)CSc2nnc(Br)n2-c2ccc(C3CC3)c3ccccc23)c(Cl)c1)C(=O)O [Compound 64] | < 50 nM |  | < 50 nM |  |  |
| O=C(O)CCC(=O)NS(=O)(=O)c1ccc(NC(=O)CSc2nnc(Br)n2-c2ccc(C3CC3)c3ccccc23)c(Cl)c1 [Compound 71] | < 50 nM |  | 50 to 100 nM |  |  |
| Cc1cc(C2CC2)cc(Cl)c1-n1c(Br)nnc1SCC(=O)Nc1ccc(C(=O)O)cc1Cl [Compound 20] |  |  |  | < 50 nM | < 50 nM |
| CC(Sc1nnc(Br)n1-c1ccc(C2CC2)c2ccccc12)C(=O)Nc1ccc(S(N)(=O)=O)cc1Cl (centres unmarked) [Compound 44] | < 50 nM | < 50 nM |  |  |  |
| Cc1cc(C)c(-n2c(SCC(=O)Nc3ccc(S(N)(=O)=O)cc3Cl)nnc2C(F)(F)F)c2c1CCCC2 [Compound 54] | < 50 nM | < 50 nM |  |  |  |
| CCCCCC(=O)NS(=O)(=O)c1ccc(NC(=O)CSc2nnc(Br)n2-c2ccc(C3CC3)c3ccccc23)c(Cl)c1 [Compound 75] | < 50 nM |  | < 50 nM |  |  |
| CCCCC(=O)NS(=O)(=O)c1ccc(NC(=O)CSc2nnc(Br)n2-c2ccc(C3CC3)c3ccccc23)c(Cl)c1 [Compound 74] | < 50 nM |  | < 50 nM |  |  |
| NS(=O)(=O)c1ccc(NC(=O)CSc2nnc(Cl)n2-c2ccc(C3CC3)c3ccccc23)c(Cl)c1 [Compound 65] | < 50 nM |  | < 50 nM |  |  |

| SMILES | IC50 (wild type HIV RT; Table 2, wild-type RT) | EC50 (wild-type (WT) HIV; [1]) | EC50 (wild-type (WT) HIV; [2]) | IC50 (wild type HIV RT; Table 1, wild-type RT) | EC50 (wild-type (WT) HIV; [3]) |
| --- | --- | --- | --- | --- | --- |
| NS(=O)(=O)c1ccc(NC(=O)CSc2nnc(Br)n2-c2ccc(C3CC3)cc2)c(Cl)c1 [Compound 46] | < 50 nM | < 50 nM |  |  |  |
| Cc1cc(C2CC2)cc(Cl)c1-n1c(Br)nnc1SCC(=O)Nc1ccc(S(N)(=O)=O)cc1Cl [Compound 70] | < 50 nM | < 50 nM |  |  |  |
| N[C@@H](CC(=O)NS(=O)(=O)c1ccc(NC(=O)CSc2nnc(Cl)n2-c2ccc(C3CC3)c3ccccc23)c(Cl)c1)C(=O)O [Compound 59] | < 50 nM |  | < 50 nM |  |  |
| NCCC(N)C(=O)NS(=O)(=O)c1ccc(NC(=O)CSc2nnc(Br)n2-c2ccc(C3CC3)c3ccccc23)c(Cl)c1 (centres unmarked) [Compound 62] | < 50 nM |  | < 50 nM |  |  |
| NS(=O)(=O)c1ccc(NC(=O)CSc2nnc(Br)n2-c2ccc(C3CCC3)c3ccccc23)c(Cl)c1 [Compound 73] | < 50 nM |  | < 50 nM |  |  |
| Cc1ccc2c(C)ccc(-n3c(Br)nnc3SCC(=O)Nc3ccc(S(N)(=O)=O)cc3Br)c2c1 [Compound 52] | < 50 nM |  | < 50 nM |  |  |
| CCCc1ccc(-n2c(Br)nnc2SCC(=O)Nc2ccc(S(N)(=O)=O)cc2Cl)c2ccccc12 [Compound 55] | < 50 nM |  | < 50 nM |  |  |
| Cc1cc(S(N)(=O)=O)ccc1NC(=O)CSc1nnc(Br)n1-c1ccc(C)c2c1CCCC2 [Compound 51] | < 50 nM |  | < 50 nM |  |  |
| NS(=O)(=O)c1ccc(NC(=O)CSc2nnc(Br)n2-c2ccc(C3CC3)cc2OC(F)(F)F)c(Cl)c1 [Compound 66] | < 50 nM | < 50 nM |  |  |  |
| NCCC[C@@H](N)C(=O)NS(=O)(=O)c1ccc(NC(=O)CSc2nnc(Br)n2-c2ccc(C3CC3)c3ccccc23)c(Cl)c1 [Compound 60] | < 50 nM |  | < 50 nM |  |  |
| CCc1ccc(-n2c(Br)nnc2SCC(=O)Nc2ccc(S(N)(=O)=O)cc2Cl)c2c1CCCC2 [Compound 50] | < 50 nM |  | < 50 nM |  |  |
| CC(=O)NS(=O)(=O)c1ccc(NC(=O)CSc2nnc(Br)n2-c2ccc(C3CC3)c3ccccc23)c(Cl)c1 [Compound 48] | < 50 nM |  | < 50 nM |  |  |
| Cc1cc(C2CC2)ccc1-n1c(Br)nnc1SCC(=O)Nc1ccc(S(N)(=O)=O)cc1Cl [Compound 61] |  |  | < 50 nM |  |  |
| CCCC(=O)NS(=O)(=O)c1ccc(NC(=O)CSc2nnc(Br)n2-c2ccc(C3CC3)c3ccccc23)c(Cl)c1 [Compound 58] | < 50 nM | < 50 nM |  |  |  |
| CCCc1ccc(-n2c(Br)nnc2SCC(=O)Nc2ccc(S(N)(=O)=O)cc2C)c2ccccc12 [Compound 56] | < 50 nM |  | < 50 nM |  |  |
| COc1ccc2c(C)ccc(-n3c(Br)nnc3SCC(=O)Nc3ccc(C(=O)O)cc3Cl)c2c1 [Compound 15] |  |  |  | < 50 nM | < 50 nM |
| NS(=O)(=O)c1ccc(NC(=O)CSc2nnc(Br)n2-c2c(Cl)cc(C3CCC3)c3ccccc23)c(Cl)c1 (single isomer, unassigned) [Compound 68] | < 50 nM |  | < 50 nM |  |  |
